Patent publication EP0829476B1, “6-Substituted acyclopyrimidine nucleoside derivatives and antiviral agent containing the same as active ingredient thereof” (MITSUBISHI CHEMICAL CORPORATION, priority 1989, dated 1991)

Assays:
[1] = Cytotoxicity: destruction of MT-4 cells not infected with HIV, cultured the same way; assay type: cell-based; details: human, 5 days of incubation, concentration at which 50 % of the MT-4 cells were destroyed, read-out: 50% cytotoxic concentration to MT-4 cells
Procedure: (§1) In RPMI 1640 DM culture medium containing 20 mM of Hepes buffer solution, 10 % fetal bovine serum and 20 µg/ml of gentamycin, 3 x 10^4 MT-4 cells (human T cell clone which is destroyed by the infection of HIV) were infected with HIV in an amount of 100 times as large as expected to cause 50 % infection of the cells. Immediately thereafter, a predetermined amount of sample was added to the culture medium using 50 mg/ml sample solutions in dimethyl sulfoxide and the cells were cultured at 37°C.
(§2) After 5 days of incubation, the number of existing cells was counted to determine the concentration of the compound for preventing the death of 50 % of the MT-4 cells. Separately, MT-4 cells were cultured in the same way as above except that they were not infected with HIV to determine the concentration of the compound at which 50 % of the MT-4 cells were destroyed.

HIV = assay: Inhibitory activity for HIV infection: prevention of death of HIV-infected MT-4 cells, cell count after 5 days; assay type: cell-based; details: Human immunodeficiency virus 1, MT4, 120 h, 5 days of incubation at 37°C, concentration preventing the death of 50 % of the MT-4 cells
Procedure: Inhibitory activity for HIV infection
as §1, §2

## CC(=O)OCCOCn1c(Sc2ccccc2)c(C)c(=O)[nH]c1=S [Compound 1, 1-[(2-acetoxyethoxy)methyl]-6-phenylthio-2-thiothymine]
[1]
  CC50 at 120 h: 196 µM

## CCCOCn1c(Sc2ccccc2)c(C)c(=O)[nH]c1=O [Compound 38]
HIV
  EC50: 5.6 µM
[1]
  CC50 at 120 h: 147 µM

## CCOCn1c(-c2ccccc2)c(CC)c(=O)[nH]c1=S [Compound 215, 1-ethoxymethyl-5-ethyl-6-phenylthiouracil]
HIV
  EC50: 0.016 µM
[1]
  CC50 at 120 h: 133 µM

## CCCCn1c(-c2ccccc2)c(CC)c(=O)[nH]c1=S [Compound 220, 1-butyl-5-ethyl-6-phenylthiouracil]
HIV
  EC50: 0.016 µM
[1]
  CC50 at 120 h: 45 µM

## CCOCn1c(Sc2ccccc2)c(CC)c(=O)[nH]c1=S [Compound 313, 1-ethoxymethyl-5-ethyl-6-phenylthio-2-thiouracil]
[1]
  CC50 at 120 h: 81 µM

## CCOCn1c(Sc2cc(C)cc(C)c2)c(CC)c(=O)[nH]c1=S [Compound 314]
HIV
  EC50: 0.004 µM
[1]
  CC50 at 120 h: > 100 µM

## CCOCn1c(Cc2ccccc2)c(CC)c(=O)[nH]c1=O [Compound 427, 6-benzyl-1-ethoxymethyl-5-ethyluracil]
[1]
  CC50 at 120 h: 245 µM
